Test results from ChEMBL document CHEMBL1201862, “PubChem BioAssay data set” (2004).
Activity calls are given as the source filed them.

Legend:
[1] = molecular target: Signal transducer and activator of transcription 3 (Homo sapiens, UniProt P40763); test: STAT3 blockade with qPCR and toxicity readouts – cell-based, STAT1 panel, cytotoxicity, late-stage follow-up, panel member STAT3 Inhibition (AID 2078)
[2] = molecular target: Signal transducer and activator of transcription 1-alpha/beta (Homo sapiens, UniProt P42224); test: STAT3 blockade with qPCR and toxicity readouts – cell-based, STAT1 panel, cytotoxicity, late-stage follow-up, panel member STAT1 Inhibition (AID 2078)
[3] = molecular target: T1, G-protein coupled receptor 35 (Homo sapiens, UniProt Q9HC97); test: SAR analysis of Agonists of the GPR35 Receptor using an Image-Based Assay - Set 4. [Related pubchem assays (depositor defined):AID2013, AID2026]; format: functional
T1 sequence (Q9HC97 whole entry): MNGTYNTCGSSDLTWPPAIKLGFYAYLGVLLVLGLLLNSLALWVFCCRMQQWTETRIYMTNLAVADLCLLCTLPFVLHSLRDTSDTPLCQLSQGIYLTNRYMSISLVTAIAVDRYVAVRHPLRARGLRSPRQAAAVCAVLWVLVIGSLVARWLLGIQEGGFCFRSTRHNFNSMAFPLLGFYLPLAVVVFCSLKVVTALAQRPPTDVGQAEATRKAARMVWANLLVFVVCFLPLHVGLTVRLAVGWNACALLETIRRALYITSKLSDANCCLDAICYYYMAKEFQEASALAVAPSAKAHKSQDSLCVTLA

Cannabinoid receptor 1 [4] = molecular target: T2, Cannabinoid receptor 1 (Homo sapiens, UniProt P21554); test: SAR analysis of agonists of the Cannabinoid Receptor 1 using an Image-Based Assay - Set 4. [Related pubchem assays (depositor defined):AID2013, AID2026]; format: functional
T2 sequence (P21554 whole entry): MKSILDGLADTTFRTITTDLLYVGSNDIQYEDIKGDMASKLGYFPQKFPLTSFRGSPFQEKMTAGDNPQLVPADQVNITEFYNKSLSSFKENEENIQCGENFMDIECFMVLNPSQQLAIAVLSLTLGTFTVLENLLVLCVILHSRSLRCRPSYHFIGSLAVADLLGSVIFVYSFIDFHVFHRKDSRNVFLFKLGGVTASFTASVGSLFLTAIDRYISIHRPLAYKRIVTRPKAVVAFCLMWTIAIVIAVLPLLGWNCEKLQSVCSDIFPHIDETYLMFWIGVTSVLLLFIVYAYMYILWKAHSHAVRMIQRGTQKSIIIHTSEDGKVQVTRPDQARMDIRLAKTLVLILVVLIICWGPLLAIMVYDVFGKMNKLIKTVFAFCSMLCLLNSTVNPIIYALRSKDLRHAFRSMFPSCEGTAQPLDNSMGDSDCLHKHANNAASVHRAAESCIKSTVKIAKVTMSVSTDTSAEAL

[5] = molecular target: T1, G-protein coupled receptor 35; test: SAR analysis of Antagonists of the GPR35 Receptor using an Image-Based Assay - Set 6. [Related pubchem assays (depositor defined):AID2013, AID2026]; format: functional
Cannabinoid receptor 1 [6] = molecular target: T2, Cannabinoid receptor 1; test: SAR analysis of antagonists of the Cannabinoid Receptor 1 using an Image-Based Assay - Set 4. [Related pubchem assays (depositor defined):AID2013, AID2026]; format: functional
[7] = molecular target: G-protein coupled receptor 55 (Homo sapiens, UniProt Q9Y2T6); test: SAR Analysis of Selective Antagonists of GPR55 using an Image-Based Assay - Set 4. [Related pubchem assays (depositor defined):AID2013, AID2026]; format: functional;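 note: antagonism of response to 5 µM lysophosphatidylinositol agonist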
G-protein coupled receptor 55, sequence (Q9Y2T6 whole entry): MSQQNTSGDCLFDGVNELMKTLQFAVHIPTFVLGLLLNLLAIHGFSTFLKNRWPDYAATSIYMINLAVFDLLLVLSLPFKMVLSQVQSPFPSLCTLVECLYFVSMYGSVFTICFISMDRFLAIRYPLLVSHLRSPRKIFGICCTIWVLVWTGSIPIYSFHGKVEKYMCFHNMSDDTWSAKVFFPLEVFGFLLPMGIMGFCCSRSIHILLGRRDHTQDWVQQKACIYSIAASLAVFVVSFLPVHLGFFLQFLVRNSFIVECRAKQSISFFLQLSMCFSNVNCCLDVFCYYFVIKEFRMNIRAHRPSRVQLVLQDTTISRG

Cannabinoid receptor 2 [8] = molecular target: T3, Cannabinoid receptor 2 (Homo sapiens, UniProt P34972); test: SAR analysis of antagonists of the Cannabinoid Receptor 2 using an Image-Based Assay - Set 3. [Related pubchem assays (depositor defined):AID2013, AID2026]; format: functional
T3 sequence (P34972 whole entry): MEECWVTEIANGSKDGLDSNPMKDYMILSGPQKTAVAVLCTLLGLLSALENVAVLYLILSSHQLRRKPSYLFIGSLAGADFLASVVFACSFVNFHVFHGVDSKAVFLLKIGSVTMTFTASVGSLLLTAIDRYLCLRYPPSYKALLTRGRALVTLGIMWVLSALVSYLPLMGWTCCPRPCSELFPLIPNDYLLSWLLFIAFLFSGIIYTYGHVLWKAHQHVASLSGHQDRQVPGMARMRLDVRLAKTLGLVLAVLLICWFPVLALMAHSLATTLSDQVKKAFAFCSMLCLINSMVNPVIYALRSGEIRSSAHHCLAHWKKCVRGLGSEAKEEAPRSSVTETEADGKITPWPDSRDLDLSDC

Cannabinoid receptor 2 [9] = molecular target: T3, Cannabinoid receptor 2; test: SAR analysis of agonists of the Cannabinoid Receptor 2 using an Image-Based Assay - Set 3. [Related pubchem assays (depositor defined):AID2013, AID2026]; format: functional
[10] = molecular target: T4, Sphingosine 1-phosphate receptor 4 (Homo sapiens, UniProt O95977); test: Late-stage fluorescence dose response cell-based assay to identify agonists of the Sphingosine 1-Phosphate Receptor 4 (S1P4): purchased compounds EC50. [Related pubchem assays (depositor defined):AID1509, AID1523, AID1563, AID1686, AID1701, AID1801]; format: functional
T4 sequence (O95977 whole entry): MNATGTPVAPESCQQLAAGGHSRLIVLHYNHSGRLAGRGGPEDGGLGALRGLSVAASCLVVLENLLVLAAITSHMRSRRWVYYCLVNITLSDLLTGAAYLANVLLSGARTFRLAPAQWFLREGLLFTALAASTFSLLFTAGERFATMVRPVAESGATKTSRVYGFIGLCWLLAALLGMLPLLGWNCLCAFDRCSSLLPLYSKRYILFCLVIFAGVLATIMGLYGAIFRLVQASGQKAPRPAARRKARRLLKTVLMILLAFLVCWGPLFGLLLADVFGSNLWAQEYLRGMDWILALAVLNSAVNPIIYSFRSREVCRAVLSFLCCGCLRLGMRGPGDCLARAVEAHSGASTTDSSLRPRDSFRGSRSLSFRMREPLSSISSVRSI

[11] = molecular target: Sphingosine 1-phosphate receptor 1 (Homo sapiens, UniProt P21453); test: Fluorescence-based counterscreen assay for S1P4 agonists: Cell-based dose response high throughput screening assay to identify agonists of the Sphingosine 1-Phosphate Receptor 1 (S1P1). [Related pubchem assays (depositor defined):AID1509, AID1523, AID1801, AID463107, AID463118, AID463119, AID463122, AID463123, AID463129, AID463225, AID504400, AID504460]; format: functional
[12] = molecular target: T4, Sphingosine 1-phosphate receptor 4; test: Fluorescence dose response cell-based high throughput screening assay for agonists of the Sphingosine 1-Phosphate Receptor 4 (S1P4). [Related pubchem assays: 1509 (Primary screen.), 1523 (Confirmation screen in triplicates.)]; format: functional
[13] = viability of uninfected HEp-2 cells – cell-based, HTS, cytotoxicity control for RSV inhibitor project, dose response (AID 2410); format: functional; conditions: human respiratory syncytial virus
BJ [14] = test: BJ-TERT fibroblast viability loss – cell-based, RAS-independent, luminescence, dose response (AID 1933); format: functional; conditions: Homo sapiens
BJ [15] = test: cells; format: functional, cell-based; conditions: Homo sapiens
[16] = viability of PTEN-deleted HCT116 cells – cell-based, HCT116 PTEN knockout, dose response (AID 1047); format: functional;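 note: HCT116 colon tumor cells with PTEN knocked out; cells exposed to compound for 60 hours before readout; potency for loss of cell viability measured by luminescence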
[17] = viability of HCT116 lacking mutant beta-catenin – cell-based, human colon tumor, dose response (AID 1045); format: functional;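 note: HCT116 colon tumor cells with beta catenin knocked out; cells exposed to compound for 60 hours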
BJ [18] = test: BJ-TERT-LT-ST fibroblast viability loss – cell-based, RAS-independent, luminescence, dose response (AID 1935); format: functional; conditions: Homo sapiens;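 note: BJ fibroblasts immortalized with TERT plus LT and ST oncogenes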
[19] = DRD fibroblast viability loss – cell-based, non-viral oncogenic, luminescence, dose response (AID 1934); format: functional; conditions: Homo sapiens
CAAX prenyl protease 2 = CAAX prenyl protease 2 (Saccharomyces cerevisiae S288c, UniProt Q03530); format: biochemical
[20] = molecular target: T5, Replicative DNA helicase DnaB (Mycobacterium tuberculosis, UniProt P9WMR3); test: DnaB intein splicing inhibitors, dose response, biochemical, cell-free fluorescence (AID 449749); format: functional
T5 sequence (P9WMR3 whole entry): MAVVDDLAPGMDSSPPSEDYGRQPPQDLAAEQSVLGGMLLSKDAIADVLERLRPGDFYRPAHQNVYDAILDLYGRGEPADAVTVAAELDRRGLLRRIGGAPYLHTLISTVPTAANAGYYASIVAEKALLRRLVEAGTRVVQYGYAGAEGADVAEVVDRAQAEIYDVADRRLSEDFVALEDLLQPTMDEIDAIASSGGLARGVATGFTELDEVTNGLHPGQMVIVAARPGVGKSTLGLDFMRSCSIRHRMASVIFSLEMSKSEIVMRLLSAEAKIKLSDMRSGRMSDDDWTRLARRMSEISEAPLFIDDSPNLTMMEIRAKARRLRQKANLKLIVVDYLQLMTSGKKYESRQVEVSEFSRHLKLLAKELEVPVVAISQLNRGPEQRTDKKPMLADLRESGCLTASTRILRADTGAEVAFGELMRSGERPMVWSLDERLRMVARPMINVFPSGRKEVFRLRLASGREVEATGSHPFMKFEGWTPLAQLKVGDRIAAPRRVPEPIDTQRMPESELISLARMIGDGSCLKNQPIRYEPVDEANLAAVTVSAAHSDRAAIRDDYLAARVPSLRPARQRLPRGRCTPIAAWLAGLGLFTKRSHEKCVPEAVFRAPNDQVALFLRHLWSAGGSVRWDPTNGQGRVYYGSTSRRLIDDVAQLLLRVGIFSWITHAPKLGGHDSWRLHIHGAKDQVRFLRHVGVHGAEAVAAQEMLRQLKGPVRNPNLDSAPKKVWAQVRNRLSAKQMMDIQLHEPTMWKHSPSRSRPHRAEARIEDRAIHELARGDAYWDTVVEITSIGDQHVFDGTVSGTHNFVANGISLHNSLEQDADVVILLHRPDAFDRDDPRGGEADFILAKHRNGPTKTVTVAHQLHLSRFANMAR

Protein RecA = molecular target: T6, Protein RecA (Mycobacterium tuberculosis, UniProt P9WHJ3); test: Fluorescence Cell-Free Homogeneous Dose Retest to Identify Inhibitors of RecA-Intein Splicing Activity. [Related pubchem assays (depositor defined):AID2097, AID2223, AID489010, AID492950]; format: functional
T6 sequence (P9WHJ3 whole entry): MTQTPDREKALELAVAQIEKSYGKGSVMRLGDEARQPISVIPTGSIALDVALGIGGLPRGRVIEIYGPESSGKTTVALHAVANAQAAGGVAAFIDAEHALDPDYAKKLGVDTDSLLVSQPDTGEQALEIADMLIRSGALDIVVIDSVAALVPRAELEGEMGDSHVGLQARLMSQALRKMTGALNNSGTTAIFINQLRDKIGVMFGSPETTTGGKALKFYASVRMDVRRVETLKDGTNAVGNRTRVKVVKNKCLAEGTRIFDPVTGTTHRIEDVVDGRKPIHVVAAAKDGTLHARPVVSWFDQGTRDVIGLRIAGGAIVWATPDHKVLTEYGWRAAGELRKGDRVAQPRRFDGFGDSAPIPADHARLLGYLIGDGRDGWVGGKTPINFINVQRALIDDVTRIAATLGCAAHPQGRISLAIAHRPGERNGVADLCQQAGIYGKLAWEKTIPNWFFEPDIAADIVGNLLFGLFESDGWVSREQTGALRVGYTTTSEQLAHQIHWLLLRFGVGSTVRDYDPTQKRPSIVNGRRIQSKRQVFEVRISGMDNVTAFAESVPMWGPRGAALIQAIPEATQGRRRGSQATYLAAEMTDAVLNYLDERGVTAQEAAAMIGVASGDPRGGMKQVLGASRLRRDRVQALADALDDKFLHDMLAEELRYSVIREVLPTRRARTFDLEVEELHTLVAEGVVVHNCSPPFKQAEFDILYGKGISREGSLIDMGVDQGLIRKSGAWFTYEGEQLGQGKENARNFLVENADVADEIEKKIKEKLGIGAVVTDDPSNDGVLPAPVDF

[21] = molecular target: Glyceraldehyde-3-phosphate dehydrogenase (Homo sapiens, UniProt P04406)
[22] = molecular target: Alkaline phosphatase, placental type (Homo sapiens, UniProt P05187); test: human placental alkaline phosphatase inhibition – biochemical, luminescence, confirmation (AID 1512); format: functional
[23] = molecular target: T7, Runt-related transcription factor 1/Core-binding factor subunit beta (Homo sapiens, UniProt Q01196+Q13951); test: disruptors of Runt domain/CBFb-SMMHC interaction – biochemical, FRET, Cerulean-Runt, Venus-CBFb-SMMHC, uHTS, […] (AID 1434); format: protein assay
T7 sequence (Q01196 whole entry, the tested form may be a part): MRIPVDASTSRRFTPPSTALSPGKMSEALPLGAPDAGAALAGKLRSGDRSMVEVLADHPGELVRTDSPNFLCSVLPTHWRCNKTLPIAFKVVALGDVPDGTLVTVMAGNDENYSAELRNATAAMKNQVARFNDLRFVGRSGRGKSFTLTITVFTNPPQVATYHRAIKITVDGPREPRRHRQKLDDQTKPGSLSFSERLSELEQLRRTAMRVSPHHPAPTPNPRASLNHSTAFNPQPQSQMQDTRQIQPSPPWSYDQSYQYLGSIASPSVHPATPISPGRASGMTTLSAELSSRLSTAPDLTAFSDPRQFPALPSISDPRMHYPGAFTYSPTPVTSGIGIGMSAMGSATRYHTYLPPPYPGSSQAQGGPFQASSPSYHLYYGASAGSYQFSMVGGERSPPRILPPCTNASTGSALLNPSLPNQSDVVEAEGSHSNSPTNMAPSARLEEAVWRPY
T7 sequence (Q13951 whole entry, the tested form may be a part): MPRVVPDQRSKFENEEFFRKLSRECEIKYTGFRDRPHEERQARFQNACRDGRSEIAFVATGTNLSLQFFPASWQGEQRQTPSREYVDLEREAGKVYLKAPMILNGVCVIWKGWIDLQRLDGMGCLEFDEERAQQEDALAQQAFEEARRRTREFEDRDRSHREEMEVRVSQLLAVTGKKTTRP

[24] = molecular target: T7, Runt-related transcription factor 1/Core-binding factor subunit beta; test: Runt domain/CBFb-SMMHC interaction disruptors – biochemical, TR-FRET (AID 1438); format: protein assay
Ion channel NompC = Ion channel NompC (Danio rerio, UniProt Q7T1G6); test: Dose response cell-based high-throughput screening assay for agonists of the transient receptor potential channel N1 (TRPN1). [Related pubchem assays (depositor defined):AID1424, AID1448]; format: functional
Ion channel NompC, sequence (Q7T1G6 whole entry): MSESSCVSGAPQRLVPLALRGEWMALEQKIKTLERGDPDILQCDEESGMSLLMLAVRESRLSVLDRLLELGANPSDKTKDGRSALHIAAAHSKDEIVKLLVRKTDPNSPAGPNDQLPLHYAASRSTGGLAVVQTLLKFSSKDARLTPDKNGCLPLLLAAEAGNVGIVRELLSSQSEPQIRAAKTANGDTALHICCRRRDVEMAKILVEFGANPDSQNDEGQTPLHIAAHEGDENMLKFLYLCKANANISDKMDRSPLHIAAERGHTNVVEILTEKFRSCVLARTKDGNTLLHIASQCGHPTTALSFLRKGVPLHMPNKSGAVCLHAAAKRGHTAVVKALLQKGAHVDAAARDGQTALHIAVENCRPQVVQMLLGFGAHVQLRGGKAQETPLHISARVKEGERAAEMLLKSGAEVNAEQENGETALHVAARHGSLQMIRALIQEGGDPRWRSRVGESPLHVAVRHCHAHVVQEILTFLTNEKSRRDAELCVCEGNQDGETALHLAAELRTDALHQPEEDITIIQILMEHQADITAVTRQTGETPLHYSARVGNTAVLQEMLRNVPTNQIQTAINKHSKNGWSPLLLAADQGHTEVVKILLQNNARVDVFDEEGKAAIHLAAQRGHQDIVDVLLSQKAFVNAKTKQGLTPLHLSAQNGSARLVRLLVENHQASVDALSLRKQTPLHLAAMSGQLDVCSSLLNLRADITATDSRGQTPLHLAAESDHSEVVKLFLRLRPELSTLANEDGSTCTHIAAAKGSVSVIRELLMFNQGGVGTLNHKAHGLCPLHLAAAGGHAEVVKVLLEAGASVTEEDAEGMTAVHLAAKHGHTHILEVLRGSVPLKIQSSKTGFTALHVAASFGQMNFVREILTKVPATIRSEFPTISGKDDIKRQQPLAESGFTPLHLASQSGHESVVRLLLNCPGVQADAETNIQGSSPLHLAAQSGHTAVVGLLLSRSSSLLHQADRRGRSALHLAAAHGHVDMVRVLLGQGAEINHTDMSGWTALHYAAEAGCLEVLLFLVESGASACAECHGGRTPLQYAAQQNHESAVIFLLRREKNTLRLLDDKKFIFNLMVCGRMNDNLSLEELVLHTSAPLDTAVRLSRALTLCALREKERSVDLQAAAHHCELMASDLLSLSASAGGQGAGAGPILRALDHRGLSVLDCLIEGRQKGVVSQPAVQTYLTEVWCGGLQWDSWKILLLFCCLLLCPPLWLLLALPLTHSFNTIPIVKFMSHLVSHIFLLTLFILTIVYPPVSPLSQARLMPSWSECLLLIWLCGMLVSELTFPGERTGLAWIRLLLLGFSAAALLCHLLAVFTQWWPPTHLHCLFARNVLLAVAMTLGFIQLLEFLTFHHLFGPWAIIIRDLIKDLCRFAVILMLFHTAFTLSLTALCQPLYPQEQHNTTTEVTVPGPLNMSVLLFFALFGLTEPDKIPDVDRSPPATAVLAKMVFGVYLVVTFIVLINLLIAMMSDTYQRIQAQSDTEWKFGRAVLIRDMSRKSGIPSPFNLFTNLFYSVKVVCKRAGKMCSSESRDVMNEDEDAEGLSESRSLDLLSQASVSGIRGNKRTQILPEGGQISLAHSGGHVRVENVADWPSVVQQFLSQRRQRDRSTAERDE

Mucolipin-3 = molecular target: T8, Mucolipin-3 (Homo sapiens, UniProt Q8TDD5); test: Fluorescence counterscreen assay for […] agonists: dose response cell-based high-throughput screening assay to identify agonists of the transient receptor potential channel ML3 (TRPML3). [Related pubchem assays: 1424, 1448 ]; format: functional
T8 sequence (Q8TDD5 whole entry): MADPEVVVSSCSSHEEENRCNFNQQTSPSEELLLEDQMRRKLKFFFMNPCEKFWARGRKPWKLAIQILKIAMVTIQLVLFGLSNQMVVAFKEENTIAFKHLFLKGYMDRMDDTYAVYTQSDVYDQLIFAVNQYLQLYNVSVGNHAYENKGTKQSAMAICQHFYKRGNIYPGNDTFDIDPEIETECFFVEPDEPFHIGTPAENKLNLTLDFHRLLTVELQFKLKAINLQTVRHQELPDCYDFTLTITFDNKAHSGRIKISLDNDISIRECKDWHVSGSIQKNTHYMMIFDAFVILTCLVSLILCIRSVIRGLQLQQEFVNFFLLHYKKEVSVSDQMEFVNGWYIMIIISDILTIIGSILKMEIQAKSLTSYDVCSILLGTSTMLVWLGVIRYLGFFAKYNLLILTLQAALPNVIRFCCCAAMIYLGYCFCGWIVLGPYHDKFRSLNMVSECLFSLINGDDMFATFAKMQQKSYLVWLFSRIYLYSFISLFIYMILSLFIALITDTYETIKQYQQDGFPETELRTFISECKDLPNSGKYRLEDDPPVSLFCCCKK

Hexokinase = Hexokinase (Trypanosoma brucei, UniProt Q38C41); test: Confirmation assay for inhibitors of Trypanosoma brucei hexokinase 1-Analogue-first series. [Related pubchem assays (depositor defined):AID1430, AID1632, AID2516, AID2560, AID2579, AID2600, AID449725, AID492951]; format: functional
Hexokinase, sequence (Q38C41 whole entry): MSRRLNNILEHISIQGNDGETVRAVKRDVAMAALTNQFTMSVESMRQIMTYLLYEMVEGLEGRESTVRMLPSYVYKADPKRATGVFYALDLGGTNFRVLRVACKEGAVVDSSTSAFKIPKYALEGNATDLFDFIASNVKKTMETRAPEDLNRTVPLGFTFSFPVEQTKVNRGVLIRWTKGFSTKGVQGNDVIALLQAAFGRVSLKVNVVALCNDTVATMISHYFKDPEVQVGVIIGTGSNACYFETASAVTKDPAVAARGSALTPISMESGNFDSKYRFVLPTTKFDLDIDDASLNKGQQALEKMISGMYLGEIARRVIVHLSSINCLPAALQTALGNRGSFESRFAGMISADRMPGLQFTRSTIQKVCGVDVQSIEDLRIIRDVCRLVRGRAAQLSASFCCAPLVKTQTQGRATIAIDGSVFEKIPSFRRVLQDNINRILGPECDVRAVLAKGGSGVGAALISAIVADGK

Signal transducer and activator of transcription 3, sequence (P40763 whole entry): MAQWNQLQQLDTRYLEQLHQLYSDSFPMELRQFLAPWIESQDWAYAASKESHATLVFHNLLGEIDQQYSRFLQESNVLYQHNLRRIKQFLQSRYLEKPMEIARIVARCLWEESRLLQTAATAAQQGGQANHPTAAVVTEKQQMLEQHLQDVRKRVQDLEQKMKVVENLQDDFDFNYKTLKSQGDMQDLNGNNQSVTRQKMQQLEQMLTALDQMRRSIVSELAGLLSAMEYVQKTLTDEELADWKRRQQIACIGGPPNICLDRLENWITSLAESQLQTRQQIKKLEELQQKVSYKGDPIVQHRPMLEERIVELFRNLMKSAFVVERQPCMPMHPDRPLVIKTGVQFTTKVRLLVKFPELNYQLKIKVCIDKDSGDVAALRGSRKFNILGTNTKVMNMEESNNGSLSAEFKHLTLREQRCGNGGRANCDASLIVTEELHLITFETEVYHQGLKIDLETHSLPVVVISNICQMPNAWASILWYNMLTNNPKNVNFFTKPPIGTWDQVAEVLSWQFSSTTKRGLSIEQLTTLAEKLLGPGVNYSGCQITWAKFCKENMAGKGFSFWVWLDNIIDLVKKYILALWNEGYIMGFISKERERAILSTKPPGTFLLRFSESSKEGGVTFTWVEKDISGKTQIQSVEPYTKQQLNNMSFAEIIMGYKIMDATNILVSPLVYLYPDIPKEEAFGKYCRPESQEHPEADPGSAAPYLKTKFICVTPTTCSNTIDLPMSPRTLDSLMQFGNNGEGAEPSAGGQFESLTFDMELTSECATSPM

## Cc1sc2ncnc(N3CCC(C(=O)c4ccccc4)CC3)c2c1C
[1]
  IC50: 5.21 µM (active)
[2]
  IC50: > 55.7 µM (inactive)

## Cc1[nH]nc(-c2ccc(O)cc2O)c1-c1ccc(Br)cc1
[3]
  EC50: > 32 µM (inactive)
Cannabinoid receptor 1 [4]
  EC50: > 32 µM (inactive)
[5]
  IC50: > 32 µM (inactive)
Cannabinoid receptor 1 [6]
  IC50: 0.981 µM (active)
[7]
  IC50: 5.4 µM (active)
Cannabinoid receptor 2 [8]
  IC50: 9.2 µM (active)
Cannabinoid receptor 2 [9]
  EC50: > 32 µM (inactive)

## Cc1ccc(OCC(=O)Nc2ccc(Cl)cc2F)c([N+](=O)[O-])n1
[10]
  EC50: > 50 µM (inactive)

## CCOC(=O)c1c(-n2c(C)cc(/C=C3\C(=O)NC(=O)N(C)C3=O)c2C)sc2c1CCCC2
[11]
  EC50: > 49.8 µM (inactive)
[12]
  EC50: > 49.8 µM (not active)

## COC(=O)CSc1nc(N)c2c3c(sc2n1)C(c1ccccc1)SC(c1ccccc1)C3 (centres undefined)
[13]
  CC50: > 50 µM (active)
BJ [14]
  EC50: 8.88 µM (inconclusive)
BJ [15]
  EC50: > 150 µM (inconclusive)
[16]
  EC50: 14.2 µM (active)
[17]
  EC50: 14.4 µM (active)
BJ [18]
  EC50: 17.1 µM (inconclusive)
[19]
  EC50: 11.4 µM (active)
CAAX prenyl protease 2
  AC50: 13.8 µM (active)
[20]
  AC50: > 380 µM (inactive)
Protein RecA
  EC50: > 380 µM (inactive)

## CN(C)C(=O)c1cc(-c2cc(F)c(Cl)cc2Cl)n[nH]1
[21]
  IC50: > 100 µM (not active)
[22]
  IC50: > 100 µM (inactive)

## O=C1Nc2ccccc2C12Nc1ccccc1S2 (centres undefined)
[23]
  IC50: 8.95 µM (active)
[24]
  IC50: 28.2 µM (active)

## CCOC(=O)C1C(c2ccc3c(c2)OCO3)NC(=O)NC1(O)C(F)(F)F (centres undefined)
Ion channel NompC
  EC50: > 29.9 µM (inactive)
Mucolipin-3
  EC50: > 29.9 µM (not active)

## O=c1c2cccnc2sn1-c1ccccc1
Hexokinase
  IC50: 2.27 µM (active)
